This test relates to mice. Kind of test: phenyl-p-quinone writhing assay in mice (analgesia). Type of test: in vivo. Particulars: Mus musculus, sc, read-out: ED50 (subcutaneous dose effecting an approximately 50% inhibition of writhing). The source says: The 3-(4-piperidyl)-1,2-benzisoxazoles of the present invention are useful as analgetics due to their ability to alleviate pain in mammals. […] Exptl. Biol Med., 95 729 (1957)]. Thus, for instance, the subcutaneous dose effecting an approximately 50% inhibition of writhing (ED50) in mice produced in this assay is as follows: […]

The mark [1] stands for this setting: mice, subcutaneous, phenyl-p-quinone writhing.

Molecules are shown by their SMILES. Read-outs that look alike come from different tables or passages of the source.

As for `C=CCN1CCC(c2noc3ccccc23)CC1.Cl` [3-(1-Allyl-4-piperidyl)-1,2-benzisoxazole hydrochloride], the ED50 under setting [1] is 1.06 mg/kg. For `Cc1ccc2onc(C3CCN(C)CC3)c2c1.O=C(O)/C=C/C(=O)O` [3-(1-Methyl-4-piperidyl)-5-methyl-1,2-benzisoxazole fumarate], the ED50 is 0.566 mg/kg.

For `Cl.c1ccc(CCN2CCC(c3noc4ccccc34)CC2)cc1` [3-[1-(β-Phenylethyl)-4-piperidyl]-1,2-benzisoxazole hydrochloride], the ED50 under setting [1] came to 0.386 mg/kg. Take `CCC(=O)O[C@](Cc1ccccc1)(c1ccccc1)[C@H](C)CN(C)C` [propoxyphene, reference compound]: the ED50 turned out to be 3.9 mg/kg.

Regarding `Cl.Fc1ccc2c(C3CCNCC3)noc2c1` [3-(4-Piperidyl)-6-fluoro-1,2-benzisoxazole hydrochloride], the ED50 stood at 1.79 mg/kg. Regarding `C=CCN1CCC(c2noc3cc(F)ccc23)CC1.Cl` [3-(1-Allyl-4-piperidyl)-6-fluoro-1,2-benzisoxazole hydrochloride], the ED50 under setting [1] was found to be 0.455 mg/kg. On to `CN(C)CCCN1CCC(c2noc3ccccc23)CC1.O=C(O)/C=C/C(=O)O.O=C(O)/C=C/C(=O)O` [3-[1-(3-Dimethylaminopropyl)-4-piperidyl]-1,2-benzisoxazole difumarate], for which the ED50 under setting [1] worked out at 7.4 mg/kg. For `CN1CCC(c2noc3ccccc23)CC1.Cl` [3-(1-Methyl-4-piperidyl)-1,2-benzisoxazole hydrochloride], the ED50 was determined as 0.415 mg/kg. For the compound `Cl.c1ccc2c(C3CCNCC3)noc2c1` [3-(4-Piperidyl)-1,2-benzisoxazole hydrochloride], the ED50 amounted to 0.517 mg/kg. `Cl.Clc1ccc2c(C3CCNCC3)noc2c1` [3-(4-Piperidyl)-6-chloro-1,2-benzisoxazole hydrochloride]: the ED50 was found to be 5.6 mg/kg. `CC(C)=CCN1CCC2(C)c3cc(O)ccc3CC1C2C` (centres unmarked) [pentazocine, reference compound]: the ED50 worked out at 1.3 mg/kg.

The values above are taken from patent US4408054A, “Oximes of 4-benzoyl-piperidines” (Hoechst-Roussel Pharmaceuticals Inc., priority 1982, dated 1983).
